Data on one compound can be found in US20020028918A1, “Styryl dyes” (KABUSHIKI KAISHA HAYASHIBARA SEIBUTSU KAGAKU KENKYUJO, priority 2000, published 2002).

A short description of data set [1]: Thermal property by DTA and TGA (decomposition point).
The nature of data set [2]: Light resistance of styryl dye thin layer under xenon lamp exposure. The data set is classed as physicochemical. As to conditions: thin layer on glass, 500 W xenon lamp 25 min, transmittance at 600 nm. How it is done:
Light-resistance Improvement of Styryl Dyes
Thereafter, in the usual manner, a prescribed amount of the resulting solution was dropped on either surface of a polished glass substrate, 5 cm×5 cm, while the glass substrate was rotated at a rotation rate of 1,000 rpm for one minute to uniformly coat the solution thereupon, and sequentially blown with hot air and cold air to dry the coated solution.
The resulting glass substrates coated with the styryl dyes were measured for transmittance (T0) at a wavelength of 600 nm, and then exposed with light for 25 min using a 500 W xenon lamp. Immediately after that, the resulting substrates were remeasured for transmittance (T) at a wavelength of 600 nm, and the transmittance of T and T0 dye substrated for the Equation 1 to calculate the residual percentage (%). In parallel, control systems, which 15 (mg) of the conventional compound represented by Chemical Formula 44 was dissolved to TFP with or without two mg of the azo organic metal complex represented by Chemical Formula 38 as a light-resistant improver, were provided and treated similarly as above. [formula]

As to `CN(C)c1ccc(C=CC2=[N+](C)c3ccc(Cl)cc3C2(C)C)cc1.Cc1ccc(S(=O)(=O)[O-])cc1` [Chemical Formula 44], in data set [1] (DTA/TGA, MODEL TG/DTA 220, temperature increasing at 10° C./min), the “Decomposition point (° C.)” value turned out to be 236.1 °C. Besides, the “Decomposition behaviour around the decomposition point” value in data set [1] (TGA/DTA, 10° C./min) is given as “very slowly decomposed at around the decomposition point”. Further, the “Residual percentage of dye (%)” value in data set [2] (no light-resistant improver added (Formula 26 is itself combined with azo organic metal complex anion)) was 3.2%; in data set [2] (with addition of the azo organic metal complex of Chemical Formula 38) it was 89.5%.
